# Measurements reported in ChEMBL document CHEMBL4414547, “Discovery of a novel 2,5-dihydroxycinnamic acid-based 5-lipoxygenase inhibitor that induces apoptosis and may impair autophagic flux in RCC4 renal cancer cells” (Eur J Med Chem, 2019).
# Activity calls are given as the source filed them. The rule behind the calls is not given here.
# Experiments:
# [1] = Cytotoxicity against VHL-positive human RCC10 cells assessed as reduction in cell viability incubated for 4 days by XTT assay; format: functional, cell-based; conditions: 96 h
# RCC4 [2] = experiment: Induction of DNA damage in VHL-deficient human RCC4 cells assessed as induction of p53 expression at 2.5 to 10 uM incubated for 24 hrs by Western blot analysis; format: functional, cell-based
# [3] = target: T1, Polyunsaturated fatty acid 5-lipoxygenase (Homo sapiens) (UniProt P09917); experiment: Inhibition of human 5-LO transfected in HEK293 cells coexpressing FLAP assessed as leukotriene formation at 1 uM using arachidonic acid as substrate preincubated for 5 mins followed by calcium ionophore A23187/arachidonic acid addition and measured after 15 mins by RP-HPLC analysis relative to control; format: cell-based; set-up: scale not given: the % may be the effect or the level left
# T1 sequence (whole entry): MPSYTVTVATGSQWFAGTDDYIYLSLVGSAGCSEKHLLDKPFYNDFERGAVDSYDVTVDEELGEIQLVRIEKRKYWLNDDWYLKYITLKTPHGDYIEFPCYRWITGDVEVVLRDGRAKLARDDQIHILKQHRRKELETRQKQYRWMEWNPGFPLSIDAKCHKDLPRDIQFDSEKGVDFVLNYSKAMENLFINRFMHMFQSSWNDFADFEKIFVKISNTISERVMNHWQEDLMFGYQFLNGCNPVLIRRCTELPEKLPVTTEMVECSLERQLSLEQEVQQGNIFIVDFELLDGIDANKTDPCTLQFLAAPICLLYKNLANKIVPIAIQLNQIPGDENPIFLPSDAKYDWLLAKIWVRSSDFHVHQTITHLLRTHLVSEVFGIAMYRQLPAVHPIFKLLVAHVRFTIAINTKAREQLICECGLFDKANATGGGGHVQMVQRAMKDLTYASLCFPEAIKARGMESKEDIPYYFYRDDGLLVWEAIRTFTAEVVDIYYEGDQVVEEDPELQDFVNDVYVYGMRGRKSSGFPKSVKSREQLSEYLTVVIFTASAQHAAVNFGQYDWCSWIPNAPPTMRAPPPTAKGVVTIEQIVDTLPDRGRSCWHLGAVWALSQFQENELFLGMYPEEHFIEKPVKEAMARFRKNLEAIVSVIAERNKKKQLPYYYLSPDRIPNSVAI
# RCC4/VHL [4] = experiment: Induction of DNA damage in human RCC4/VHL cells assessed as induction of p53 expression at 2.5 to 10 uM incubated for 24 hrs by Western blot analysis; format: functional, cell-based
# RCC4/VHL [5] = experiment: Induction of cellular phenotype changes in human RCC4/VHL cells at 2.5 to 10 uM incubated for 24 hrs by inverted microscopic analysis; format: functional, cell-based
# RCC4/VHL [6] = experiment: Induction of autophagy in human RCC4/VHL cells assessed as increase in LC3B2 expression incubated for 24 hrs by Western blot analysis; format: functional, cell-based
# [7] = target: T1, Polyunsaturated fatty acid 5-lipoxygenase (Homo sapiens); experiment: Potency index, ratio of CAPE IC50 to compound IC50 for inhibition of 5-LO in human PMNL cells assessed as reduction in leukotriene formation preincubated for 5 mins followed by thapsigargin stimulation measured after 15 mins by RP-HPLC analysis; format: cell-based
# RCC4 [8] = experiment: Induction of autophagy in VHL-deficient human RCC4 cells assessed as increase in conversion of LC3B1 to LC3B2 expression at 2.5 to 10 uM incubated for 24 hrs by Western blot analysis; format: functional, cell-based
# RCC4/VHL [9] = experiment: Induction of autophagy in human RCC4/VHL cells assessed as increase in LC3B1 expression incubated for 24 hrs by Western blot analysis; format: functional, cell-based
# RCC4 [10] = experiment: Inhibition of autophagic flux in VHL-deficient human RCC4 cells assessed as increase in p62 expression at 2.5 to 10 uM incubated for 24 hrs by Western blot analysis; format: functional, cell-based
# RCC4 [11] = experiment: Induction of apoptosis in VHL-deficient human RCC4 cells assessed as cleavage of pro-caspase 3 after 24 hrs by Western blot analysis; format: functional, cell-based
# [12] = target: T1, Polyunsaturated fatty acid 5-lipoxygenase (Homo sapiens); experiment: Inhibition of 5-LO in human PMNL cells assessed as reduction in leukotriene formation at 1 uM preincubated for 5 mins followed by thapsigargin stimulation measured after 15 mins by RP-HPLC analysis relative to control; format: cell-based
# RCC4/VHL [13] = experiment: Cytotoxicity against VHL-positive human RCC4/VHL cells assessed as reduction in cell viability incubated for 4 days by XTT assay; format: functional, cell-based; conditions: for IC50: 96 h
# [14] = Cytotoxicity against VHL-deficient human RCC10 cells assessed as reduction in cell viability incubated for 4 days by XTT assay; format: functional, cell-based; conditions: 96 h
# RCC4 [15] = experiment: Induction of autophagy in VHL-deficient human RCC4 cells assessed as increase in LC3B2 expression incubated for 24 hrs by Western blot analysis; format: functional, cell-based
# RCC4/VHL [16] = experiment: Induction of autophagy in human RCC4/VHL cells assessed as increase in conversion of LC3B1 to LC3B2 expression at 2.5 to 10 uM incubated for 24 hrs by Western blot analysis; format: functional, cell-based
# RCC4 [17] = experiment: Induction of cellular phenotype changes in VHL-deficient human RCC4 cells at 2.5 to 10 uM incubated for 24 hrs by inverted microscopic analysis; format: functional, cell-based
# RCC4 [18] = experiment: Induction of autophagy in VHL-deficient human RCC4 cells assessed as increase in LC3B1 expression incubated for 24 hrs by Western blot analysis; format: functional, cell-based
# [19] = Antioxidant activity assessed as DPPH radical scavenging activity incubated for 30 mins under dark condition; format: functional
# RCC4/VHL [20] = experiment: Inhibition of autophagic flux in human RCC4/VHL cells assessed as increase in p62 expression at 2.5 to 10 uM incubated for 24 hrs by Western blot analysis; format: functional, cell-based
# [21] = target: T1, Polyunsaturated fatty acid 5-lipoxygenase (Homo sapiens); experiment: Potency index, ratio of Zileuton IC50 to compound IC50 for inhibition of 5-LO in human PMNL cells assessed as reduction in leukotriene formation preincubated for 5 mins followed by thapsigargin stimulation measured after 15 mins by RP-HPLC analysis; format: cell-based
# 786-0 [22] = experiment: Cytotoxicity against VHL-deficient human 786-0 cells assessed as reduction in cell viability incubated for 4 days by XTT assay; format: functional, cell-based; conditions: 786-0, 96 h
# [23] = target: T1, Polyunsaturated fatty acid 5-lipoxygenase (Homo sapiens); experiment: (§1) Inhibition of 5-LO in human PMNL cells assessed as reduction in leukotriene formation preincubated for 5 mins followed by thapsigargin stimulation measured after 15 mins by RP-HPLC analysis; format: cell-based
# [24] = target: T2, Polyunsaturated fatty acid 5-lipoxygenase (Homo sapiens, UniProt P09917); experiment: as §1; format: cell-based
# T2 sequence (P09917 whole entry): T1 sequence (whole entry)
# 786-0 [25] = experiment: Cytotoxicity against VHL-positive human 786-0 cells assessed as reduction in cell viability incubated for 4 days by XTT assay; format: functional, cell-based; conditions: 786-0, 96 h
# RCC4 [26] = experiment: Cytotoxicity against VHL-deficient human RCC4 cells assessed as reduction in cell viability incubated for 4 days by XTT assay; format: functional, cell-based; conditions: for IC50: RCC4, 96 h
# [27] = Selectivity ratio of IC50 for VHL-positive human RCC4/VHL cells to IC50 for VHL-deficient human RCC4 cells; format: functional
# [28] = target: T1, Polyunsaturated fatty acid 5-lipoxygenase (Homo sapiens); experiment: Inhibition of human 5-LO transfected in HEK293 cells coexpressing FLAP assessed as reduction in leukotriene formation at 1 uM using arachidonic acid as substrate preincubated for 5 mins followed by calcium ionophore A23187/arachidonic acid addition and measured after 15 mins by RP-HPLC analysis; format: cell-based
structure (smiles),measurement,setting,value
O=C(/C=C/c1cc(O)ccc1O)OCCc1ccccc1,IC50,[1],0.96 µM
same,Activity,RCC4 [2],inactive
same,Activity,[3],25%
same,Activity,RCC4/VHL [4],inactive
same,Activity,RCC4/VHL [5],inactive
same,Activity,RCC4/VHL [6],Dose-dependent effect
same,Ratio IC50,[7],3
same,Activity,RCC4 [8],Active
same,Activity,RCC4/VHL [9],Dose-dependent effect
same,inhibition,RCC4 [10],Active
same,Activity,RCC4 [11],Dose-dependent effect
same,inhibition,[12],> 50%
same,Activity,RCC4/VHL [13],Dose-dependent effect
same,IC50,RCC4/VHL [13],99.6 µM
same,IC50,[14],5.04 µM
same,Activity,RCC4 [15],Dose-dependent effect
same,Activity,RCC4/VHL [16],Active
same,Activity,RCC4 [17],inactive
same,Activity,RCC4 [18],Dose-dependent effect
same,IC50,[19],16.4 µM
same,inhibition,RCC4/VHL [20],Active
same,Ratio IC50,[21],7
same,IC50,786-0 [22],34.8 µM
same,inhibition,[23],Dose-dependent effect
same,IC50,[24],0.33 µM
same,IC50,786-0 [25],> 100 µM
same,Activity,RCC4 [26],Dose-dependent effect
same,IC50,RCC4 [26],8 µM
same,Ratio IC50,[27],12
O=C(/C=C/c1cc(O)cc(O)c1)OCCc1ccccc1,Activity,[3],100%
O=C(/C=C/c1cccc(O)c1O)OCCCc1ccccc1,inhibition,[28],Active
O=C(/C=C/c1cccc(O)c1O)OCCc1ccccc1,inhibition,[12],> 50%
same,inhibition,[28],Active
same,IC50,[24],0.89 µM
O=C(/C=C/c1cc(O)ccc1O)OCCCc1ccccc1,inhibition,[28],Active
O=C(/C=C/c1ccc(O)cc1O)OCCCc1ccccc1,inhibition,[28],inactive
O=C(OCCc1ccccc1)c1cc(O)ccc1O,IC50,[1],3.9 µM
same,IC50,RCC4/VHL [13],> 100 µM
same,IC50,[14],14.8 µM
same,inhibition,[28],inactive
same,IC50,[19],17.3 µM
same,IC50,786-0 [22],> 100 µM
same,IC50,786-0 [25],> 100 µM
same,IC50,RCC4 [26],42.8 µM
